# From patent US7678390B2, “Carbon monoxide as a biomarker and therapeutic agent” (priority 1999, dated 2010)
# Legend:
# rats = experiment: Tolerability of low concentrations of CO in rats; assay type: in vivo, rat
# From the text: Animals were exposed to >98% O2 or 98% O2+CO mixtures at a flow rate of 12 liters/min in a 3.70-cubic-foot glass exposure chamber. Animals were supplied food and water during the exposures. CO at a concentration of 1% (10,000 ppm) in compressed air was mixed with >98% O2 in a stainless steel mixing cylinder prior to entering the exposure chamber. By varying the flow rates of CO into the mixing cylinder, concentrations delivered to the exposure chamber were controlled. Because the flow rate was primarily determined by the O2 flow, only the CO flow was changed to generate the different concentrations delivered to the exposure chamber. A carbon monoxide analyzer (Interscan Corporation, Chatsworth, Calif.) was used to measure CO levels continuously in the chamber. Gas samples were taken by the analyzer through a port in the top of the exposure chamber at a rate of 1 liter/min and analyzed by electrochemical detection with a sensitivity of 10 ppm to 600 ppm. CO levels in the chamber were recorded at hourly intervals and there were no changes in chamber CO concentrations once the chamber had equilibrated. O2 concentrations in the chamber were determined using a gas spectrometer.
# [1] = test system: rats given lipopolysaccharide; experiment: LPS-induced neutrophil influx into the airways of rats; assay type: in vivo, rat; conditions: LPS 3 mg/kg i.v., exposed to CO
# Method: Animals were anesthesized with sodium pentobarbital 24 h after LPS administration or 56 h of hyperoxia exposure. BAL (35 ml/kg) was performed 4 times with PBS (pH 7.4). Cells were pooled from the lavages and centrifuged at 1200 g for 10 min. The supernatant was discarded and cells were resuspended in PBS. Cell counts were performed using a Neubaur hemocytometer. For differential analysis, samples were cytocentrifuged and stained with Diff-Quik. Measurement of Injury Markers Rats were removed at 56 h of hyperoxia and anesthetized with sodium pentobarbital. The pleural effusion was collected by inserting an 18 gauge needle and 10 cc syringe through the diaphragm and withdrawing all fluid present in the pleural cavity. BAL was performed as described above, and the first lavage was centrifuged at 1200 g for 10 min and the supernatant was assayed for the protein albumin as determined by Bromcresol Green Kit (BCG) from Sigma (St. Louis, Mo.). […] At each time point, 1 cc of blood was drawn into a heparinized syringe, sealed and placed on ice until analyzed for oxygen tension. Arterial oxygen tension and carboxyhemoglobin were determined using a BG3 Instrumentation Laboratory Blood Gas Analyzer and Co-oximeter (Boston, Mass.). […]
# ERK1/ERK2 = experiment: LPS-induced MAP kinase activation, Western blot (ERK1/ERK2); assay type: cell-based, mouse; conditions: RAW 264.7 macrophages, LPS in the presence of CO
# From the text: Animals. Male C57BL/6 and IL-10 (−/−) mice were purchased from Jackson Laboratory (Bar Harbor, Me.), and allowed to acclimate for one week with rodent chow and water ad libitum. The MKK (−/−) mice were generated as previously described [Lu, et al., EMBO J. 18:1845-1857 (1999)]. Wild type littermates were used as controls. All animals were housed in accordance with guidelines from the American Association for Laboratory Animal Care and Research Protocols and were approved by the Animal Care and Use Committee of Yale University School of Medicine. Reagents. All reagents were purchased from Sigma Chemical Co. (St Louis, Mo.) unless specified otherwise. Plasmid Construct. Plasmid pSFFV/HO-1 was constructed by insertion of the rat HO-1 cDNA [Shibahara, et al., Proc. Natl. Acad. Sci. USA. 82: 7865-7869 (1985)] downstream of the Friend spleen focus-forming virus 5′ long-terminal repeat in the mammalian expression vector pSFFV/neo [Fuhlbrigge, et al, Proc. Natl. Acad. Sci. USA. 85: 5649-5653 (1988)] (kindly provided by Stanley Korsmeyer). Transfection. […] Gas samples were taken by the analyzer through a port in the top of the chambers at a rate of 1 L/min and analyzed by electrochemical detection, with a sensitivity of 10-600 ppm. Concentration levels were measured hourly and there were no fluctuations in the CO concentrations once the chamber had equilibrated (approximately 5 min). […]
structure (smiles),measurement,setting,value
"[C-]#[O+] [CO, carbon monoxide]",500 ppm as fraction of the lethal concentration of CO,rats; in our model (data not shown),one twentieth
same,untoward effects,rats; rats exposed to CO (50-500 ppm) alone,did not exhibit any untoward effects
same,LPS-induced neutrophil influx into the airways,[1],significantly inhibited
same,LPS-induced ERK1/ERK2 MAP kinase activation,ERK1/ERK2,not affected
